Assays:
[1] = target: T1, human P2Y12 receptor (Homo sapiens, UniProt Q9H244); experiment: Human P2Y12 recombinant cell membrane binding assay; conditions: competition against 33P 2MeS-ADP; CHO cell membranes with recombinant human P2Y12 receptor
T1 construct: expressed in transfected cells; host or cells: CHO cells (membrane preparation)
Procedure: The ability of the compounds of the formula I to inhibit the P2Y12 receptor can be assessed by determining the concentration of the compound of the formula I that binds to the human P2Y12 Recombinant Cell Membrane Binding Assay with 33P 2MeS-ADP.
Human P2Y12 Recombinant Cell Membrane Binding Assay
The ability of a test compound to bind to the P2Y12 receptor was evaluated in a recombinant cell membrane binding assay. In this competitive binding assay, the test compound competed against a radiolabeled agonist for binding to the P2Y12 receptor, expressed on the cell membrane. Inhibition of binding of the labeled material was measured and correlated to the amount and potency of the test compound. This binding assay is a modification of the procedure described by Takasaki, J. et. al, Mol. Pharmacol., 2001, Vol. 60, pg. 432.
As source of P2Y12, a membrane preparation was prepared from Chinese Hamster Ovary (CHO) cells with recombinant expression of the human P2Y12 receptor according to standard procedures.
To a 96-well microtiterplate the following were added: a) 24 μl of assay buffer (10 mM HEPES, 138 mM NaCl, […] KCl, 12 mM NaHCO3, 1 mM EDTA-Na, 0.1% BSA, pH 7.4) b) 1 μL compound in DMSO c) 50 μL P2Y12 CHO membrane (20 μg/ml) and after 15 min at RT d) 25 μL of 1.61 nM 33P 2MeS-ADP (Perkin Elmer NEN custom synthesis, specific activity ˜2100Ci/mmol) made in assay buffer.
After 20 min incubation at RT samples were transferred to 96-well microtiter filterplates (Millipore HTS GF/B), pre-wetted for 20 min with 300 μL of stop buffer (10 mM HEPES, 138 mM NaCl pH 7.4) and then filtered through completely with a Millipore plate vacuum. Next, wells were washed four times with 400 μl/well of stop buffer on a plate vacuum. The plate was disassembled and allowed to air dry overnight with the filter side up over night. The filter plates were snapped into adapter plates and 0.1 mL of Microscint 20 Scintillation Fluid (Perkin Elmer #6013621) was added to each well. The top of the filterplate was sealed with plastic plate covers. The sealed filterplate were incubated 2 hours at RT. A Microbeta Scintillation Counter was used to measure counts. The binding of compound is expressed as a % inhibition of specific binding, defined by subtraction of the background with 1 mM ADP.
Compounds were diluted as 10 mM DMSO stocks and tested in a four-point, five-fold dilution series run in triplicate beginning at 10 μM, final concentration. Data were analyzed using a four-parameter curve fit with a fixed minimum and maximum experimentally defined as the average positive and negative controls on each plate. The IC50 data of the above described human P2Y12 recombinant cell membrane binding assay for exemplary compounds of the present invention are shown in table 1.

[2] = system: human platelet rich plasma (ADP-induced platelet aggregation); experiment: Inhibition of human platelet aggregation, 96-well assay; assay type: cell-based; conditions: 20 min, aggregation induced by ADP, 96-well plates, AUC of absorbance over 20 minutes
Procedure: Inhibition of Human Platelet Aggregation
Alternatively to a binding assay which measures a compound's ability to bind to the P2Y12 receptor, the effect on cellular function was also determined. This ability of the compound was evaluated in two platelet aggregation assays: in 96-well plates and with the “Born”-method using single cuvettes.
Whole blood was collected from healthy volunteers using 20 ml syringes containing 2 ml of ACD-A Aqua-Citrat-Dextrose-A, Fresenius). The anticoagulated whole blood was transferred into 15 ml polypropylene conical tubes (10 ml per tube). The tubes were centrifuged for 15 minutes at 150×g at RT without using the centrifuge brake. This procedure leads to a pellet of cellular components and a supernatant of platelet rich plasma (PRP). The PRP layer was collected from each tube and pooled for each donor. To avoid carry over of cellular components following centrifugation, approximately 5 ml of PRP was left in the tube. The platelet concentration was determined using a Coulter Counter.
The 15 ml tubes containing the pellet of cellular components were centrifuged again for 10 minutes at 1940×g. This pelleted out most particulate blood constituents remaining, leaving a layer of Platelet Poor Plasma (PPP). The PPP was collected for each donor. The PRP layer, previously set aside, was diluted with PPP to a final concentration of approximately 3×E8 platelets/ml with the PPP.
The human platelet aggregation assay is performed in 96-well plates using a microtiter plate reader (SpectraMax Plus 384 with SoftMax Pro software from Molecular Devices). In the plate 15 μl of test compound at 10× final concentration in NaCl is mixed with 120 μl fresh PRP and incubated for 5 minutes. Following that incubation period, 15 μl of 40 μM ADP is added to the reaction mix. This addition of ADP is sufficient to induce aggregation in the absence of an inhibitor. The plates are then transferred to the microplate reader and aggregation is measured over 20 minutes. The instrument settings include: Absorbance at 650 nm, run time 20 minutes with readings in 1-minute intervals and 50 seconds shaking between readings all performed at 37° C. Results of the assay are expressed as % inhibition, and are calculated using area under curve (AUC) of the absorbance over 20 minutes.
The IC50 data of the above described platelet aggregation 96-well assay using human platelet rich plasma for exemplary compounds of the present invention are shown in table 2.

T1 sequence (Q9H244 whole entry): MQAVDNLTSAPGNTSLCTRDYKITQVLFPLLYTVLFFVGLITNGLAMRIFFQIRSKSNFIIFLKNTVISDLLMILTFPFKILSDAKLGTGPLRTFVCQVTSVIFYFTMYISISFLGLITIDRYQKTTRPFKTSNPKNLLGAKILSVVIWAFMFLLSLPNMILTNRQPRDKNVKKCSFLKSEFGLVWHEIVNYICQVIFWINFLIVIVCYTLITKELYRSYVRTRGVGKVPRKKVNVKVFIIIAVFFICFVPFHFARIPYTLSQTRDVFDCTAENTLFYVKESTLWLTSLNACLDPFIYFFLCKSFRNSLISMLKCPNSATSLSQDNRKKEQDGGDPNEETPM

IC50 [2]	SMILES	IC50 [1]
	CCOC(=O)N1CCN(C(=O)[C@H](CCC(=O)O)NC(=O)c2cc(OC3(C(=O)O)CCC3)n(-c3ccccc3)n2)CC1 [Example 7, 4-((S)-4-Carboxy-2-{[5-(1-carboxy-cyclobutoxy)-1-phenyl-1H-pyrazole-3-carbonyl]-amino}-butyryl)-piperazine-1-carboxylic acid ethyl ester]	601 nM
	CCOC(=O)N1CCN(C(=O)[C@H](CC(C(=O)O)C(=O)O)NC(=O)c2cc(OC3(C(=O)OCC)CCC3)n(-c3ccccc3)n2)CC1 [Example 61, 2-[(S)-2-{[5-(1-Ethoxycarbonyl-cyclobutoxy)-1-phenyl-1H-pyrazole-3-carbonyl]-amino}-3-(4-ethoxycarbonyl-piperazin-1-yl)-3-oxo-propyl]-malonic acid]	379 nM
2600 nM	CCOC(=O)N1CCN(C(=O)[C@H](CCC(=O)O)NC(=O)c2cc(OCC(=O)C3CC3)n(-c3ccccc3)n2)CC1 [Example 96, 4-((S)-4-Carboxy-2-{[5-(2-cyclopropyl-2-oxo-ethoxy)-1-phenyl-1H-pyrazole-3-carbonyl]-amino}-butyryl)-piperazine-1-carboxylic acid ethyl ester]	
	COc1cc(OC)cc(N2CCN(C(=O)[C@H](CCC(=O)O)NC(=O)c3cc(OCC(=O)C(C)(C)C)n(-c4ccccc4)n3)CC2)c1 [Example 105, (S)-5-[4-(3,5-Dimethoxy-phenyl)-piperazin-1-yl]-4-{[5-(3,3-dimethyl-2-oxo-butoxy)-1-phenyl-1H-pyrazole-3-carbonyl]-amino}-5-oxo-pentanoic acid]	1400 nM
	Cc1cc(COc2cc(C(=O)N[C@@H](CCC(=O)O)C(=O)N3CCN(c4cccc(C(F)(F)F)c4)CC3)nn2-c2ccccc2)no1 [Example 120, (S)-4-{[5-(5-Methyl-isoxazol-3-ylmethoxy)-1-phenyl-1H-pyrazole-3-carbonyl]-amino}-5-oxo-5-[4-(3-trifluoromethyl-phenyl)-piperazin-1-yl]-pentanoic acid]	3500 nM
	CC(C)(C)C(=O)COc1cc(C(=O)N[C@@H](CCC(=O)O)C(=O)N2CCC(C(=O)c3cccc(Cl)c3)CC2)nn1-c1ccccc1 [Example 127, (S)-5-[4-(3-Chloro-benzoyl)-piperidin-1-yl]-4-{[5-(3,3-dimethyl-2-oxo-butoxy)-1-phenyl-1H-pyrazole-3-carbonyl]-amino}-5-oxo-pentanoic acid]	2800 nM
	CCOC(=O)N1CCN(C(=O)[C@H](CNC(=O)C(=O)O)NC(=O)c2cc(OCC(=O)C(C)(C)C)n(-c3ccccc3)n2)CC1 [Example 134, 4-[(S)-2-{[5-(3,3-Dimethyl-2-oxo-butoxy)-1-phenyl-1H-pyrazole-3-carbonyl]-amino}-3-(oxalyl-amino)-propionyl]-piperazine-1-carboxylic acid ethyl ester]	501 nM
	CCOC(=O)N1CCN(C(=O)[C@H](CNc2c(O)c(=O)c2=O)NC(=O)c2cc(OCC(=O)C(C)(C)C)n(-c3ccccc3)n2)CC1 [Example 136, 4-[(S)-2-{[5-(3,3-Dimethyl-2-oxo-butoxy)-1-phenyl-1H-pyrazole-3-carbonyl]-amino}-3-(2-hydroxy-3,4-dioxo-cyclobut-1-enylamino)-propionyl]-piperazine-1-carboxylic acid ethyl ester]	3500 nM
1480 nM	CCOC(=O)N1CCN(C(=O)[C@H](CCC(=O)O)NC(=O)c2cc(OCC(=O)N[C@@H](C)C(=O)O)n(-c3ccccc3)n2)CC1 [Example 138, 4-[(S)-4-Carboxy-2-({5-[((S)-1-carboxy-ethylcarbamoyl)-methoxy]-1-phenyl-1H-pyrazole-3-carbonyl}-amino)-butyryl]-piperazine-1-carboxylic acid ethyl ester]	
1850 nM	CCOC(=O)N1CCN(C(=O)[C@H](CCC(=O)O)NC(=O)c2cc(OCC(=O)N[C@H](C)C(=O)O)n(-c3ccccc3)n2)CC1 [Example 139, 4-[(S)-4-Carboxy-2-({5-[((R)-1-carboxy-ethylcarbamoyl)-methoxy]-1-phenyl-1H-pyrazole-3-carbonyl}-amino)-butyryl]-piperazine-1-carboxylic acid ethyl ester]	
	CCCCOC(=O)N1CCN(C(=O)[C@H](CCC(=O)O)NC(=O)c2cc(OCC(=O)C(C)(C)C)n(-c3ccccc3)n2)CC1 [Example 147, 4-((S)-4-Carboxy-2-{[5-(3,3-dimethyl-2-oxo-butoxy)-1-phenyl-1H-pyrazole-3-carbonyl]-amino}-butyryl)-piperazine-1-carboxylic acid butyl ester]	95 nM
	CC(C)(C)C(=O)COc1cc(C(=O)N[C@@H](CCC(=O)O)C(=O)N2CCN(C(=O)OC3CCC3)CC2)nn1-c1ccccc1 [Example 158, 4-((S)-4-Carboxy-2-{[5-(3,3-dimethyl-2-oxo-butoxy)-1-phenyl-1H-pyrazole-3-carbonyl]-amino}-butyryl)-piperazine-1-carboxylic acid cyclobutyl ester]	266 nM
	CCOC(=O)N1CCN(C(=O)[C@H](CC(=O)O)NC(=O)c2cc(OCC(=O)C(C)(C)C)n(-c3ccccc3)n2)CC1 [Example 163, 4-((S)-3-Carboxy-2-{[5-(3,3-dimethyl-2-oxo-butoxy)-1-phenyl-1H-pyrazole-3-carbonyl]-amino}-propionyl)-piperazine-1-carboxylic acid ethyl ester]	200 nM
	CCOC(=O)N1CCN(C(=O)[C@H](CC(=O)NS(C)(=O)=O)NC(=O)c2cc(OCC(=O)C(C)(C)C)n(-c3ccccc3)n2)CC1 [Example 164, 4-((S)-2-{[5-(3,3-Dimethyl-2-oxo-butoxy)-1-phenyl-1H-pyrazole-3-carbonyl]-amino}-4-methanesulfonylamino-4-oxo-butyryl)-piperazine-1-carboxylic acid ethyl ester]	1600 nM
2190 nM	CCOC(=O)N1CCN(C(=O)[C@H](CCC(=O)O)NC(=O)c2cc(OCC(=O)NC3(C(=O)NC4CCC4)CCC3)n(-c3ccccc3)n2)CC1 [Example 167, 4-{(S)-4-Carboxy-2-[(5-{[1-(cyclobutyl-carbamoyl)-cyclobutylcarbamoyl]-methoxy}-1-phenyl-1H-pyrazole-3-carbonyl)-amino]-butyryl}-piperazine-1-carboxylic acid ethyl ester]	
